How the values were obtained:
[1] = Lipid nanoparticle size and polydispersity by dynamic light scattering; type: physicochemical; conditions: LNP of lipid/DSPC/cholesterol/PEG-lipid 50:10:38.5:1.5 encapsulating hEPO mRNA
Procedure: (§1) Briefly, a cationic lipid provided herein, DSPC, cholesterol, and PEG-lipid were solubilized in ethanol at a molar ratio of 50:10:38.5:1.5, and mRNA were diluted in 10 to 50 mM citrate buffer, pH=4. The LNPs were prepared at a total lipid to mRNA weight ratio of approximately 10:1 to 30:1 by mixing the ethanolic lipid solution with the aqueous mRNA solution at a volume ratio of 1:3 using a microfluidic apparatus, total flow rate ranging from 9-30 mL/min. Ethanol were thereby removed and replaced by DPBS using dialysis. Finally, the lipid nanoparticles were filtered through a […] sterile filter.
(§2) Lipid nanoparticle size were determined by dynamic light scattering using a Malvern Zetasizer Nano ZS (Malvern UK) using a […] backscatter detection mode. The encapsulation efficiency of lipid nanoparticles were determined using a Quant-it Ribogreen RNA quantification assay kit (Thermo Fisher Scientific, UK) according to the manufacturer's instructions.

[2] = Encapsulation efficiency of lipid nanoparticles, Quant-it Ribogreen RNA assay; type: physicochemical; conditions: LNP of lipid/DSPC/cholesterol/PEG-lipid 50:10:38.5:1.5 encapsulating hEPO mRNA
Procedure: as §1, §2

CCCCCCCCC(CCCCCC)CNC(=O)CCCCCN(CCO)CCN(CCCCC(COC(=O)CCCCCCC)COC(=O)CCCCCCC)C1CCCCCCC1 (stereo not drawn) [Compound 145]
polydispersity [1]: 0.047 | size (nm) [1]: 68.91 nm | Encapsulation Efficiency [2]: 88.63%

CCCCCCCCC(CCCCCC)COC(=O)CCCCCN(CCO)CCN(CCCCC(COC(=O)CCCCCCC)COC(=O)CCCCCCC)C1CCCCC1 (stereo not drawn) [Compound 139]
polydispersity [1]: 0.076 | size (nm) [1]: 59.97 nm | Encapsulation Efficiency [2]: 87.81%

CCCCCCCCC(CCCCCC)C(=O)OCCCCCCN(CCO)CCN(CCCCCCOC(=O)C(CCCCCC)CCCCCCCC)C1CCC1 (stereo not drawn) [Compound 69]
polydispersity [1]: 0.096 | size (nm) [1]: 60.99 nm | Encapsulation Efficiency [2]: 88.86%

CCCCCCCC(=O)OCC(CCCCN(CC=C(C)C)CCN(CCO)CCCCC(COC(=O)CCCCCCC)COC(=O)CCCCCCC)COC(=O)CCCCCCC [Compound 162]
polydispersity [1]: 0.068 | size (nm) [1]: 82.68 nm | Encapsulation Efficiency [2]: 85.46%

CCCCCCCC(=O)OCC(CCCCN(CCO)CCN(CCCCC(COC(=O)CCCCCCC)COC(=O)CCCCCCC)C1CCCCCC1)COC(=O)CCCCCCC [Compound 160]
polydispersity [1]: 0.096 | size (nm) [1]: 86.16 nm | Encapsulation Efficiency [2]: 86.18%

CCCCCCCCCCCOC(=O)CCCCCN(CCN(CCO)CCOCCC(=O)OCC(CCCCCCCC)CCCCCCCC)C1CCCCC1 [Compound 115]
polydispersity [1]: 0.058 | size (nm) [1]: 97.51 nm | Encapsulation Efficiency [2]: 90.22%

CCCCCCCCC(CCCCCC)CNC(=O)CCCCCN(CC)CCN(CCO)CCCCC(COC(=O)CCCCCCC)COC(=O)CCCCCCC (stereo not drawn) [Compound 159]
polydispersity [1]: 0.080 | size (nm) [1]: 77.72 nm | Encapsulation Efficiency [2]: 90.71%

CCCCC/C=C\C/C=C\CCCCCCCC(=O)OCCCCCN(CCN(CCO)CCCCCC(=O)OCC(CCCCCCCC)CCCCCCCC)C1CCCCC1 [Compound 108]
polydispersity [1]: 0.068 | size (nm) [1]: 67.69 nm | Encapsulation Efficiency [2]: 91.83%

CCCCCCCCC(CCCCCC)CNC(=O)CCCCCN(CCCCN(CCO)CCCCC(COC(=O)CCCCCCC)COC(=O)CCCCCCC)C1CCCC1 (stereo not drawn) [Compound 196]
polydispersity [1]: 0.18 | size (nm) [1]: 104.1 nm | Encapsulation Efficiency [2]: 86.33%

CCCCCCCCCCCOC(=O)CCCCCN(CCN(CCO)CCCCCC(=O)OCC(CCCCCCCC)CCCCCCCC)C1CCC1 [Compound 106]
polydispersity [1]: 0.067 | size (nm) [1]: 67.63 nm | Encapsulation Efficiency [2]: 92.14%

CCCCCCCCCCCCCCOCC(CN(CCN(CCO)CCCCCC(=O)OCC(CCCCCCCC)CCCCCCCC)C1CCC1)OCCCCCCCC (stereo not drawn) [Compound 20]
polydispersity [1]: 0.015 | size (nm) [1]: 74.98 nm | Encapsulation Efficiency [2]: 95.8%

CCCCCCCCC(CCCCCCCC)CNC(=O)CCCCCN1CCC(N(CCO)CCCCCC(=O)NCC(CCCCCCCC)CCCCCCCC)CC1 [Compound 172]
polydispersity [1]: 0.061 | size (nm) [1]: 69.59 nm | Encapsulation Efficiency [2]: 93.55%

CCCCCCCCC(CCCCCC)COC(=O)CCCCCN(CC=C(C)C)CCN(CCO)CCCCC(COC(=O)CCCCCCC)COC(=O)CCCCCCC (stereo not drawn) [Compound 148]
polydispersity [1]: 0.081 | size (nm) [1]: 64.31 nm | Encapsulation Efficiency [2]: 90.40%

CCCCCCCCCOC(=O)CCCCCCCN(CCO)C1CCN(CCCCCCCC(=O)OC(CCCCCCCC)CCCCCCCC)CC1 [Compound 176]
polydispersity [1]: 0.123 | size (nm) [1]: 65.70 nm | Encapsulation Efficiency [2]: 95.27%

CCCCCCCCCCCOC(=O)CCCCCN1CCC(N(CCO)CCCCCCCC(=O)OC(CCCCCCCC)CCCCCCCC)CC1 [Compound 174]
polydispersity [1]: 0.063 | size (nm) [1]: 78.27 nm | Encapsulation Efficiency [2]: 91.79%

CCCCCCCCC(CCCCCC)COC(=O)CCCCCN(CCO)CCN(CCCCC(COC(=O)CCCCCCC)COC(=O)CCCCCCC)C1CCC1 (stereo not drawn) [Compound 135]
polydispersity [1]: 0.035 | size (nm) [1]: 124.60 nm | Encapsulation Efficiency [2]: 87.16%

CCCCCCCCC(CCCCCCCC)CNC(=O)CCCCCN1CCC(N(CCO)CCCCCC(=O)OCC(CCCCCCCC)CCCCCCCC)CC1 [Compound 171]
polydispersity [1]: 0.076 | size (nm) [1]: 76.26 nm | Encapsulation Efficiency [2]: 96.23%

CCCCCCCCC(CCCCCC)CNC(=O)CCN(CCO)CCN(CCCCC(COC(=O)CCCCCCC)COC(=O)CCCCCCC)C1CCCCCCC1 (stereo not drawn) [Compound 213]
polydispersity [1]: 0.07 | size (nm) [1]: 110.8 nm | Encapsulation Efficiency [2]: 88.38%

CCCCCCCCC(CCCCCC)CNC(=O)CCN(CCO)CCN(CCCCC(COC(=O)CCCCCCC)COC(=O)CCCCCCC)C1CCCCCC1 (stereo not drawn) [Compound 212]
polydispersity [1]: 0.048 | size (nm) [1]: 122.1 nm | Encapsulation Efficiency [2]: 87.31%

CCCCCCCCCCCOC(=O)CCCCCN(CCN(CCO)CCCCCC(=O)OCC(CCCCCCCC)CCCCCCCC)C1CC1 [Compound 129]
polydispersity [1]: 0.069 | size (nm) [1]: 58.08 nm | Encapsulation Efficiency [2]: 90.52%

CCCCCCCCCCCC(=O)OCCCCCN(CCN(CCO)CCOCCOC(=O)CC(CCCCCCCC)CCCCCCCC)C1CCCCC1 [Compound 98]
polydispersity [1]: 0.042 | size (nm) [1]: 91.85 nm | Encapsulation Efficiency [2]: 89.31%

CCCCCCCCCCCCC(O)CN(CCCCCC(=O)OCC(CCCCCC)CCCCCCCC)CCN(CCCCCC(=O)OCCCCCCCCCCC)C1CCC1 (stereo not drawn) [Compound 2]
polydispersity [1]: 0.066 | size (nm) [1]: 64.03 nm | Encapsulation Efficiency [2]: 86.6%

CCCCCCCCC(CCCCCC)COC(=O)CCCCCN(C)CCN(CCO)CCCCC(COC(=O)CCCCCCC)COC(=O)CCCCCCC (stereo not drawn) [Compound 156]
polydispersity [1]: 0.190 | size (nm) [1]: 73.36 nm | Encapsulation Efficiency [2]: 89.69%

CCCCCCCCC(CCCCCCCC)COC(=O)CCCCCN(CCO)Cc1ccc(CN(CCCCCC(=O)OCC(CCCCCCCC)CCCCCCCC)C2CCC2)cc1 [Compound 88]
polydispersity [1]: 0.080 | size (nm) [1]: 71.00 nm | Encapsulation Efficiency [2]: 92.56%

CCCCCCCCCC(=O)OCC(CCCCN(CCO)CCN(CCCCC(COC(=O)CCCCCCCCC)COC(=O)CCCCCCCCC)C1CCC1)COC(=O)CCCCCCCCC [Compound 167]
polydispersity [1]: 0.128 | size (nm) [1]: 69.47 nm | Encapsulation Efficiency [2]: 91.97%

CCCCCCCCCCCOC(=O)CCCCCN(CCN(CCO)CCCCCC(=O)OCC(CCCCCCCC)CCCCCCCC)C1CCCC1 [Compound 130]
polydispersity [1]: 0.060 | size (nm) [1]: 76.86 nm | Encapsulation Efficiency [2]: 91.06%
